From the NIST ThermoML archive (doi:10.1016/j.jct.2013.12.025)

Assay: refractive index (Na D-line) (dimensionless); xn = mol fraction of the nth substance listed
Settings: 101 kPa, Liquid, Standard Abbe refractometry

C=C[Si](C)(C)O[Si](C)(C)C=C [1,3-diethenyl-1,1,3,3-tetramethyldisiloxane] + O=[N+]([O-])c1ccccc1
refractive index
Settings	283.15 K	288.15 K	293.15 K	298.15 K	303.15 K
x1 = 0.05	1.54466	1.54219	1.5397	1.53724	1.5348
x1 = 0.1	1.53289	1.53042	1.52796	1.52547	1.52302
x1 = 0.15	1.52202	1.51955	1.51705	1.51459	1.51211
x1 = 0.2	1.51193	1.50945	1.50694	1.50445	1.50196
x1 = 0.25	1.50266	1.50017	1.49764	1.49511	1.49265
x1 = 0.3	1.49408	1.49154	1.48901	1.48643	1.48396
x1 = 0.3508	1.48595	1.48341	1.48085	1.47825	1.47577
x1 = 0.4001	1.47862	1.47608	1.47352	1.47089	1.46841
x1 = 0.4501	1.4717	1.46914	1.46659	1.46395	1.46144
x1 = 0.4999	1.46522	1.46267	1.46009	1.45748	1.45493
x1 = 0.55	1.45917	1.45661	1.45401	1.45139	1.44883
x1 = 0.6001	1.45344	1.45088	1.4483	1.44568	1.44308
x1 = 0.6487	1.44824	1.44565	1.44307	1.44043	1.43783
x1 = 0.6999	1.44306	1.44044	1.43784	1.43521	1.43261
x1 = 0.7499	1.43821	1.43565	1.43306	1.43043	1.42778
x1 = 0.7999	1.4337	1.43109	1.42845	1.42584	1.42318
x1 = 0.8497	1.42937	1.42677	1.42414	1.42152	1.41887
x1 = 0.9	1.42527	1.42262	1.41999	1.41736	1.41471
x1 = 0.9499	1.42134	1.4187	1.41606	1.41343	1.41079
x1 = 1	1.4176	1.41495	1.41227	1.40965	1.407
